Measurements reported in patent publication EP4813381A1, “PHARMACEUTICAL USE OF GUAIANE SESQUITERPENE DERIVATIVE” (Nanjing University Of Chinese Medicine, priority 2023, dated 2025).
Values after ≈ are worked out from the molar mass of the structure shown.

How the values were obtained:
[1] = target: farnesyltransferase (FTase) (Homo sapiens, UniProt P49354+P49356); settings: in vitro; cited from earlier work
Hepa1-6 cells = assay: Hepa1-6 mouse hepatocellular carcinoma subcutaneous xenograft model; assay type: in vivo, C57BL/6 mice
Protocol: Hepa1-6 cells were cultured and expanded in vitro. An appropriate amount of cells in the logarithmic growth phase was resuspended in a mixture of serum-free DMEM medium and Matrigel (1:1). under aseptic conditions to prepare a 2.5×10^6/100 µL cell suspension. A 100 µL aliquot of this suspension was injected subcutaneously into the left forearm axilla of male C57BL/6 mice. […] Daily oral administration was performed for 2 weeks. During the treatment period, mouse body weight and tumor diameter were measured daily. At the end of the experiment, mice were euthanized by cervical dislocation, and tumors were removed for weighing. Tumor volume (TV) was calculated using the formula: TV = 1/2 × a × b^2, where a represents the longest diameter of the tumor and b represents the shortest diameter.

4T1 cells = assay type: in vivo, BALB/c mice
Protocol: (§1) 4T1 cells were cultured and expanded in vitro. […] A 100 µL aliquot of this suspension was injected subcutaneously into the left forelimb axilla of female BALB/c mice. […] Daily oral administration was performed for 3 weeks. During the treatment period, mouse body weight and tumor diameter were measured daily. At the end of the experiment, mice were euthanized by cervical dislocation, and tumors were removed for weighing. Tumor volume (TV) was calculated using the formula: TV = 1/2 × a × b^2, where a represents the longest diameter of the tumor and b represents the shortest diameter.

CCR2 mRNA = CCR2 mRNA level in MDSCs (PCR); assay type: cell-based, mice; settings: CCR2 mRNA levels in MDSCs, 2 h
Protocol: Mice were euthanized by cervical dislocation and immersed in 75% ethanol solution for 5 min. Under sterile conditions, the tibia was removed, both ends of the bone were cut, and bone marrow was repeatedly flushed into a 15 mL centrifuge tube using a 1 mL syringe filled with culture medium. Centrifuge at 1600 rpm for 5 min to collect bone marrow cells. Wash twice with 1×PBS, then resuspend in RPMI 1640 complete medium containing GM-CSF (10 ng/mL) + IL-4 (10 ng/mL) and transfer to a cell culture dish to stimulate differentiation of bone marrow cells into MDSCs. Count cells and adjust density to 1 × 10^6 cells/mL in complete medium. Seed cells uniformly into 6-well plates at 2 mL per well. […] After incubation, collect cells into centrifuge tubes, centrifuge at 1600 rpm for 5 min, wash once with 1×PBS, and add 500 µL RNA extraction reagent to each tube. After centrifugation to obtain the pellet, add 20 µL DEPC-treated water to each tube to dissolve the pellet. Determine RNA concentration and reverse transcribe to cDNA. Add the cDNA, primers, and reverse transcriptase to a 96-well plate. Centrifuge at 4000 rpm for 5 min, then place in a PCR instrument for detection.

[2] = gastric fluid, within 8 hours; cited from earlier work
[3] = in vivo; cited from earlier work
MDSCs = assay: Inhibition of MDSC chemotaxis (Transwell, Hepa1-6 tumor-conditioned medium); assay type: cell-based, mice; settings: 12 h treatment, 24 h Transwell
Protocol: Hepa1-6 mouse hepatocellular carcinoma cells were uniformly seeded into 6-well plates. After cells reached confluence, supernatant was aspirated, and 1-1.5 mL fresh medium was added to each well. Following 24 h culture, supernatant was collected, centrifuged at 1600 rpm for 5 min, aspirated, and filtered through a 0.22 µm membrane to obtain tumor-conditioned medium for subsequent use. Euthanize mice by cervical dislocation and immerse in 75% ethanol solution for 5 min. Under sterile conditions, remove the tibia, cut both ends of the bone, and aspirate the bone marrow into a 1 mL syringe. Repeat flushing into a 15 mL centrifuge tube. Centrifuge at 1600 rpm for 5 min to collect bone marrow cells. Wash twice with 1×PBS. Resuspend cells in complete RPMI 1640 medium containing cytokines GM-CSF (10 ng/mL) and IL-4 (10 ng/mL) to stimulate differentiation into MDSCs. Count cells, adjust density to 1×10^6 cells/mL, and uniformly seed into 24-well plates at 300 µL per well. […] Centrifuge at 1600 rpm for 5 min, remove supernatant, resuspend cells in 300 µL fresh medium, and place into Transwell chambers. Add 600 µL normal medium (control group) or tumor-conditioned medium (model group) to the lower chamber. Co-culture for 24 h.

CT26 cells = assay type: in vivo, BALB/c mice
H22 cells = test system: H22 cells; set-up: species or system BALB/c mice; settings: mouse, in vivo, po
Protocol: as §1, with “H22” for “4T1”, “male” for “female”, “2” for “3”

MDSCs; T cells = test system: MDSCs; T cells; set-up: species or system BALB/c mice; settings: mouse, in vivo, po
Protocol: as §1, with “H22” for “4T1”, “male” for “female”, “2” for “3”
Once all tumors were dissected, nail-sized tumor pieces were transferred to 1.5 mL Eppendorf tubes and minced with scissors. […] After digestion, pass the mixture through a 200-mesh sieve to obtain the tumor cell suspension. […] Position the spleen on a 200-mesh cell strainer. Gently press the spleen using a 10 mL syringe needle. […] Transfer the washed splenocyte suspension into a 15 mL centrifuge tube. Centrifuge at 1600 rpm for 5 min to collect cells. Wash once with 1×PBS. Add 3 mL red blood cell lysis buffer (diluted with ddH2O) to each tube and incubate for 5 min. After lysis, add 10 mL 1×PBS to each tube to terminate lysis. Centrifuge at 1600 rpm for 5 min. Add 1 mL 1×PBS to each 15 mL centrifuge tube, transfer to 1.5 mL EP tubes, and centrifuge at 1600 rpm for 5 min. Add 1 mL 1×PBS to each tube containing stained tumor cells and lysed spleen cells for one wash, centrifuge at 1600 rpm for 5 min, and remove the supernatant.
Once all tumors were dissected, nail-sized tumor pieces were transferred to 1.5 mL Eppendorf tubes and minced with scissors. […] After digestion, pass the mixture through a 200-mesh sieve to obtain the tumor cell suspension. Centrifuge the resulting tumor suspension at 1600 rpm for 5 min, aspirate the supernatant, resuspend cells in 1 mL of 1×PBS per tube. […] Position the spleen on a 200-mesh cell strainer. Gently press the spleen using a 10 mL syringe needle. […] Transfer the splenocyte suspension into a 15 mL centrifuge tube. Centrifuge at 1600 rpm for 5 min to collect cells. Wash once with 1×PBS. Add 3 mL red blood cell lysis buffer (diluted with ddH2O) to each tube and incubate for 5 min. After lysis, add 10 mL 1×PBS to each tube to terminate lysis. Centrifuge at 1600 rpm for 5 min.

Hepa1-6 = settings: 30 mg/kg intraperitoneal injection, 14 consecutive days; cited from earlier work
tumor cells = settings: in vitro cell models; cited from earlier work
physchem = settings: deionized water, 37 °C, thermodynamic from solid
[4] = Hepa1-6, oral 40 µmol/kg/d, 2 weeks

Sequence of farnesyltransferase (FTase) (P49356 whole entry, one chain of several): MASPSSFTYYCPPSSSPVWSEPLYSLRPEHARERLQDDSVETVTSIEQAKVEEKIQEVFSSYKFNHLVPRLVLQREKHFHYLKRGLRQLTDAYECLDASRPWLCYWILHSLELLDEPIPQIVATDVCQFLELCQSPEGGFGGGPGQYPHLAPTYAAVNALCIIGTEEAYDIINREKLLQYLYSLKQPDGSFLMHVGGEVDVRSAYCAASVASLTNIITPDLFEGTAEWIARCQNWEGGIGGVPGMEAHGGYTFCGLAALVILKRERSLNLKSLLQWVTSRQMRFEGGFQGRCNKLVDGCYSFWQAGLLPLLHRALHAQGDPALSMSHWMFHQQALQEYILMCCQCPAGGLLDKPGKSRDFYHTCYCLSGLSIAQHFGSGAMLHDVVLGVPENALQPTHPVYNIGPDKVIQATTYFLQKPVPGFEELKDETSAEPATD

For `C=C1C(=O)O[C@@H]2[C@H]3C(C)=CC[C@@]34O[C@@]4(C)CC[C@@H]12` [Arg, Arglabin], the IC50 [1] is given as “micromolar level”, the “Tumor Inhibition Rate (%)” value (Hepa1-6 cells; mouse, in vivo, po) is given as 95.86% and the “Tumor weight” value (Hepa1-6 cells; mouse, in vivo, po) is given as 0.04 ± 0.03 g. For the same molecule, the antitumor effects (4T1 cells; 4T1, oral 40 µmol/kg/day, 3 weeks) was “no significant antitumor effects”, the “Tumor Inhibition Rate (%)” value (4T1 cells; mouse, in vivo, po) was 12.87% and the “Tumor weight” value (4T1 cells; mouse, in vivo, po) was 1.58 ± 0.21 g. For the same molecule, the “CCR2 mRNA suppression rate in MDSCs (%)” value (CCR2 mRNA; 1 µM) was 22.3%, the “CCR2 mRNA suppression rate in MDSCs (%)” value (CCR2 mRNA; 10 µM) was 69.7% and the degradation rate [2] was 50%. The oral bioavailability [3] was 5%, the “Suppression Rate (%)” value (MDSCs; 1 µM) was 42.5% and the “Suppression Rate (%)” value (MDSCs; 10 µM) was 73.2%. The antitumor effects (CT26 cells; CT26, oral 80 µmol/kg/day, 3 weeks) was “tumor-inhibiting effects”, the “Tumor Inhibition Rate (%)” value (CT26 cells; mouse, in vivo, po) was 34.94% and the “Tumor weight” value (CT26 cells; mouse, in vivo, po) was 5.31 ± 0.51 g. For the same molecule, the “Tumor Suppression Rate (%)” value (H22 cells) was 39.43%, the “Tumor weight” value (H22 cells) was 5.18 ± 0.61 g and the “Spleen MDSCs (%)” value (MDSCs; T cells) was 27.89±4.72 %. The “Spleen T cells (%)” value (MDSCs; T cells) was 27.02±4.07%, the “Tumor T cells(%)” value (MDSCs; T cells) was 17.72±6.12 % and the “Tumor-associated MDSCs (%)” value (MDSCs; T cells) was 27.0±7.93 %.

For `C=C1C(=O)O[C@H]2[C@H]1CCC(C)=C1CC[C@@](C)(O)[C@@H]12` [MCL, Micheliolide], the “Tumor Inhibition Rate (%)” value (Hepa1-6 cells; [4]) is listed as 70.52%, the “Tumor weight” value (Hepa1-6 cells; [4]) is listed as 0.27 ± 0.24 g and the “tumor weight inhibition rate” value (Hepa1-6) is listed as 50%. For the same molecule, the IC50 (tumor cells) was “micromolar range” and the solubility (physchem) was 62 µg/mL (≈ 250 µM).
